Measurements published in ChEMBL document CHEMBL1201862, “PubChem BioAssay data set” (2004).
The source made the active and inactive calls.

Tests used:
Coagulation factor XII [1] = target: T1, Coagulation factor XII (Homo sapiens, UniProt P00748); format: functional;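 note: activated factor XIIa alpha cleaving a fluorogenic AMC peptide substrate; inhibitor potency from loss of enzyme activity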
T1 sequence (P00748 whole entry): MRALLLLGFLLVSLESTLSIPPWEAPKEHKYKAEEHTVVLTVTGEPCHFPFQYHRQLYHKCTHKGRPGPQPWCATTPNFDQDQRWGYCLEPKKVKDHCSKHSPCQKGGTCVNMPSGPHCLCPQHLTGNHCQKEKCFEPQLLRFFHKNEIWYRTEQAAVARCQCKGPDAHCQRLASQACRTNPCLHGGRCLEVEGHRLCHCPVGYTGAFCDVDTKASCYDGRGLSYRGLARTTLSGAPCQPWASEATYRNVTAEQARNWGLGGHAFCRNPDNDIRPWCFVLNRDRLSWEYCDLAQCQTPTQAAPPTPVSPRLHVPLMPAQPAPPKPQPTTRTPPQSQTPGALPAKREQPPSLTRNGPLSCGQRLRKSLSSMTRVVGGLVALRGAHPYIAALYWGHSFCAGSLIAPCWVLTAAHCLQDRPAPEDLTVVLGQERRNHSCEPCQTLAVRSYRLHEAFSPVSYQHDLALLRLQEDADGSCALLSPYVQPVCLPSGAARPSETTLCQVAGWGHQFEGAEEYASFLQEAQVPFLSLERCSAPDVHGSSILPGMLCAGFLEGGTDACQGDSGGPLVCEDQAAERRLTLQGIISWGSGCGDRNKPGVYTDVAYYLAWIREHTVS

Coagulation factor XII [2] = target: T1, Coagulation factor XII; test: activated coagulation factor XII inhibitor potency, concentration-effect curve, cell-free (AID 716); format: functional
[3] = target: T2, Sphingosine 1-phosphate receptor 4 (Homo sapiens, UniProt O95977); test: Late-stage fluorescence dose response cell-based assay to identify agonists of the Sphingosine 1-Phosphate Receptor 4 (S1P4): purchased compounds EC50. [Related pubchem assays (depositor defined):AID1509, AID1523, AID1563, AID1686, AID1701, AID1801]; format: functional
T2 sequence (O95977 whole entry): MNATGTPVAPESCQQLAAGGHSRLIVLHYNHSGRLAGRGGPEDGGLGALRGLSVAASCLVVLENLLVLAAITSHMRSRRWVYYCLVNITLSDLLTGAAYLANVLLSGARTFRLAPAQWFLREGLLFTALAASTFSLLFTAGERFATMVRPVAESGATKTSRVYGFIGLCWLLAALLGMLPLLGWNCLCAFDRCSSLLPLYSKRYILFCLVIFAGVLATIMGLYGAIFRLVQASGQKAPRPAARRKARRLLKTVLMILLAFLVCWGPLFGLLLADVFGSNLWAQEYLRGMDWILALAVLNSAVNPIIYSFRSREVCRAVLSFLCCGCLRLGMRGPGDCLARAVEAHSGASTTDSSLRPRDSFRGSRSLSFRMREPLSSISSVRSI

[4] = HepG2 cell cytotoxicity, dose response, cytotoxicity control for non-replicating M. tuberculosis project (AID 489018); format: functional; conditions: Mycobacterium tuberculosis
[5] = target: T3, C-C chemokine receptor type 6 (Homo sapiens, UniProt P51684); test: antagonism of CCR6 beta-arrestin recruitment – cell-based, luminescent beta-arrestin readout, dose response (AID 504728); format: functional
T3 sequence (P51684 whole entry): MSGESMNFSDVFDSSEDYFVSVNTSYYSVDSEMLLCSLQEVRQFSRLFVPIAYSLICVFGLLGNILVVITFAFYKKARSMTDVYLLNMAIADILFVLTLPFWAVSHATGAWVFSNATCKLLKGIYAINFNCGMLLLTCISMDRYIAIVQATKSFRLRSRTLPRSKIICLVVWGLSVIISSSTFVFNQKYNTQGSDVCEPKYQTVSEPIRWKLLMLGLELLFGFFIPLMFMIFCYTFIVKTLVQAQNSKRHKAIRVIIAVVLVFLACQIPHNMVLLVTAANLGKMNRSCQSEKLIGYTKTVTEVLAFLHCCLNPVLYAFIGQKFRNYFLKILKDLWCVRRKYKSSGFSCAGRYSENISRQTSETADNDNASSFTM

[6] = THP-1 cell cytotoxicity, dose response, cytotoxicity control for non-replicating M. tuberculosis project (AID 489025); format: functional
cells = format: functional
Beta-galactosidase = Beta-galactosidase (Escherichia coli, UniProt Q8VNN2); test: detection-enzyme interference by beta-gal modulators – biochemical, E. coli enzyme, set 3, artefact control for CCR6 antagonist project, dose response (AID 504712); format: functional
Chain of Beta-galactosidase (Q8VNN2 whole entry): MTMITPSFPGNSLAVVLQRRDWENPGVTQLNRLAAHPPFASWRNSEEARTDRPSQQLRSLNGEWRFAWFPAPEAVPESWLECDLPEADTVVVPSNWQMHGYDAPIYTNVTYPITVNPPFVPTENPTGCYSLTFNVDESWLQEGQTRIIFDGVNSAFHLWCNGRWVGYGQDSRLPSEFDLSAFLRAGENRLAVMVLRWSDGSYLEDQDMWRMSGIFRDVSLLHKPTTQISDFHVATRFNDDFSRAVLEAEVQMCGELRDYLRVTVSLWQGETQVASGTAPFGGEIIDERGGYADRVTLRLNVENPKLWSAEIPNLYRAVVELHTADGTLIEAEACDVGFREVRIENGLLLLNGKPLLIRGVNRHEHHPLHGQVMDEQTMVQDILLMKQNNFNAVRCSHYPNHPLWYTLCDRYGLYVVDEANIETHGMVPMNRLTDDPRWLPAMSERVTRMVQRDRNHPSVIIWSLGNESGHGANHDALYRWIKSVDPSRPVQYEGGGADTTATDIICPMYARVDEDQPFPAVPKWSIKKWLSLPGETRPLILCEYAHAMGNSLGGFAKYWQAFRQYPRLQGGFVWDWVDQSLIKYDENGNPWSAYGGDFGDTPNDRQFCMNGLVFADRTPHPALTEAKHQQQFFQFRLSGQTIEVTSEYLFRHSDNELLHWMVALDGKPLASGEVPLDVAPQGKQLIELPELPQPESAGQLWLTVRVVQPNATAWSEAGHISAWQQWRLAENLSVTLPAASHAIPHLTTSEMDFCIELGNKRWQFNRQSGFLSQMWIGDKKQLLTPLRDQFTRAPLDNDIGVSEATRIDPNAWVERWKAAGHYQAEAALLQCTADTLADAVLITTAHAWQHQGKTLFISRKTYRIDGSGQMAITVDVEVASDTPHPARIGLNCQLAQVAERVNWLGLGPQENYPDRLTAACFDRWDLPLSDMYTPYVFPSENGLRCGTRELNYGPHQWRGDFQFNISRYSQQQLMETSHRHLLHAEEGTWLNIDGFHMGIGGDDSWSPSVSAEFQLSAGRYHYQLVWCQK

INS1 = test: INS-1E survival protection against cytokine death – cell-based, luminescence, retest, dose response (AID 449756); format: functional; conditions: Rattus norvegicus;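 note: cell death triggered by IL-1 beta plus TNF-alpha plus IFN-gamma mixture; protective hits raise ATP signal compared with cytokine alone wells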
[7] = Vero E6 cell cytotoxicity, dose response, cytotoxicity control for non-replicating M. tuberculosis project, secondary assay (AID 492998); format: functional, VeroE6; conditions: Vero C1008
[8] = target: T4, Short transient receptor potential channel 4 (Mus musculus, UniProt Q9QUQ5); test: potentiation of DAMGO-evoked TRPC4 calcium signal – cell-based, HEK293 TRPC4/mu-opioid, Fluo-4 calcium, EC20 DAMGO, dose response (AID 434941); format: functional
T4 sequence (Q9QUQ5 whole entry): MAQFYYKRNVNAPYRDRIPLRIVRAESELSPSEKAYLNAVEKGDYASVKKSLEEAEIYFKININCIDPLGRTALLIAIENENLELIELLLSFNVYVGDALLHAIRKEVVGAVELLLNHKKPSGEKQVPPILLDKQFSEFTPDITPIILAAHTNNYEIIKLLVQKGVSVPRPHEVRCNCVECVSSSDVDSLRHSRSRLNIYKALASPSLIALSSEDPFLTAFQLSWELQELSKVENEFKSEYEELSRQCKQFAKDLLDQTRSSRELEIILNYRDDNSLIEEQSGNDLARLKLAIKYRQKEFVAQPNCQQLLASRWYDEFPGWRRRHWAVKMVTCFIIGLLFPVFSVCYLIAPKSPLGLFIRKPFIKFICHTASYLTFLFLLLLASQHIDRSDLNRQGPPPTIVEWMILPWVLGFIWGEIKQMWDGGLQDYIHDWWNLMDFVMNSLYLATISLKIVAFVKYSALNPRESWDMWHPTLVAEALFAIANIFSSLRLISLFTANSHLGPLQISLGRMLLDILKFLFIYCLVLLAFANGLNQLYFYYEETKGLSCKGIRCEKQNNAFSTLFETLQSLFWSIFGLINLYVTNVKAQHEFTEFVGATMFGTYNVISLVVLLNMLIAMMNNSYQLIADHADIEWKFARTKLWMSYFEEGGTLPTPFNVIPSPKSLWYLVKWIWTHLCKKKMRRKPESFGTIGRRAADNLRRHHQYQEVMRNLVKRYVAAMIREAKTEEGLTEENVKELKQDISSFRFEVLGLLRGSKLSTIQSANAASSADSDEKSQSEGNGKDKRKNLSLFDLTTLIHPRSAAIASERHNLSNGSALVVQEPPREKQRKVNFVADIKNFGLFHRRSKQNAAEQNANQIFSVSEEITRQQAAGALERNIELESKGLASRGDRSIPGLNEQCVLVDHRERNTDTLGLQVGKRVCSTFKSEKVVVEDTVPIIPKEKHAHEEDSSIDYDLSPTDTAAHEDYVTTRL

Cytochrome P450 2D6 = Cytochrome P450 2D6 (Homo sapiens, UniProt P10635);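 note: CYP2D6 member of a cytochrome P450 panel assay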
Chain of Cytochrome P450 2D6 (P10635 whole entry): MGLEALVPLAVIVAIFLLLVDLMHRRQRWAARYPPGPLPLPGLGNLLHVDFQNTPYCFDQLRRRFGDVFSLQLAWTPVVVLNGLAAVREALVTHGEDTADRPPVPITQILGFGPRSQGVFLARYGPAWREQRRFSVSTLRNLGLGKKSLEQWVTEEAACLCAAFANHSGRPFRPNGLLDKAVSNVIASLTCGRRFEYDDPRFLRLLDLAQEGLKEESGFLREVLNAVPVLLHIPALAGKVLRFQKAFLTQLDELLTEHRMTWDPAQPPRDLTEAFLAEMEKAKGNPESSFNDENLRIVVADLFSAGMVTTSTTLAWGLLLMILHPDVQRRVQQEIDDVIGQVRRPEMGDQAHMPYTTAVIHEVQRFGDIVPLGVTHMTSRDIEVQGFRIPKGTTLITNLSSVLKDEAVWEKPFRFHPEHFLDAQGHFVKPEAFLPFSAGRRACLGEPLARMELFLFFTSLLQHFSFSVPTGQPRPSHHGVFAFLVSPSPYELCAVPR

Cytochrome P450 2C9 = Cytochrome P450 2C9 (Homo sapiens, UniProt P11712)
Chain of Cytochrome P450 2C9 (P11712 whole entry): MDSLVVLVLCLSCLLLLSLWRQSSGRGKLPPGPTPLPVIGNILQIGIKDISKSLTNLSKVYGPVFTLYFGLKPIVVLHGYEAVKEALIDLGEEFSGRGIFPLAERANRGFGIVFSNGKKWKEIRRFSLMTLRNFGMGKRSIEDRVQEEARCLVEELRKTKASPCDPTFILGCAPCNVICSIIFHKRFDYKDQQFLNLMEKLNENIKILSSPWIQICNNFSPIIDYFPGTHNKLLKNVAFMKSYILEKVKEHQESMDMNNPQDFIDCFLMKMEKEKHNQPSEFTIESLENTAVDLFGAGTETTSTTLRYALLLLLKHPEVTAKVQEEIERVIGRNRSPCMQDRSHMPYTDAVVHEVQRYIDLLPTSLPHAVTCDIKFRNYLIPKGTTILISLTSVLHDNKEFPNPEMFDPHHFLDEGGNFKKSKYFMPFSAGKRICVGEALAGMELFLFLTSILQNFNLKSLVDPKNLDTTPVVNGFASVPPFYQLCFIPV

SMILES: CC(=O)N1CCc2c(sc(NC(=O)C3CC3)c2-c2nc3ccccc3s2)C1
- IC50 (Coagulation factor XII [1]): 25.7 µM (active)

SMILES: Cc1cc(N2CCCC2=O)cc(C)c1S(=O)(=O)NCCOc1ccccc1
- IC50 (Coagulation factor XII [2]): > 50 µM (inactive)

SMILES: Cc1nn(CC(C)C)c(Cl)c1C(=O)OC(C)C(=O)Nc1ccccc1 (centres undefined)
- EC50 [3]: > 50 µM (inactive)

SMILES: Cc1cc(N/N=C/c2ccc(F)cc2)nc(-n2nc(C)cc2C)n1
- CC50 [4]: > 20 µM (active)
- IC50 [5]: > 66.6 µM (inactive)
- CC50 [6]: 10.8 µM (active)
- IC50 (cells): < 0.1 µM (active)
- IC50 (Beta-galactosidase): > 66.6 µM (inactive)
- AC50 (INS1): 2.81 µM (active)
- CC50 [7]: 15.6 µM (active)

SMILES: Cc1ccc(/C=N/NC(=O)NC2CCCCC2)o1
- EC50 [8]: 3.35 µM (active)

SMILES: COc1ccc2[nH]cc(CCN(C)C)c2c1 [MEBUFOTENIN]
- AC50 (Cytochrome P450 2D6): 20 µM (inconclusive)
- EC50 [8]: 0.67 µM (active)
- AC50 (Cytochrome P450 2C9): inconclusive
